Experimental data taken from ChEMBL document CHEMBL1158672, “Rubrobramide, a cytotoxic and phytotoxic metabolite from Cladobotyrum rubrobrunnescens” (1998).
In brackets after ≈: the same amount, converted by molar mass. Activity calls are given as the source filed them. No cut-off for these calls is given here.

Experiments:
Meloidogyne incognita [1] = assay: Nematicidal activity against Meloidogyne incognita; format: functional; conditions: read-out: LD50 (the source's name)
Meloidogyne incognita [2] = assay: Nematicidal activity against Meloidogyne incognita up to 100 ug/mL; format: functional, organism-based
HL-60 = assay: Cytotoxicity against human HL60 cells up to 100 ug/mL; format: functional, cell-based
HeLa S3 = assay: Cytotoxicity against human HeLaS3 cells up to 100 ug/mL; format: functional, cell-based
L1210 = assay: Antiproliferative activity against mouse L1210 cells at 50 ug/mL; format: functional
Lepidium sativum = assay: Phytotoxicity against Lepidium sativum assessed as inhibition of seedling germination at 100 ug/mL; format: functional; design: scale not given: the % may be the effect or the level left
Setaria italica = assay: Phytotoxicity against Setaria italica assessed as inhibition of seedling germination at 100 ug/mL; format: functional; design: scale not given: the % may be the effect or the level left

COc1c(-c2ccco2)coc(=O)c1C [CLADOBOTRIN] was tested. Which LC50 (Meloidogyne incognita [1]) did it give?
Its LC50 is 100 µg/mL (≈ 485 µM).

With CC(C)C[C@]12NC(=O)[C@@]3(O)C(=O)C[C@](C)(O[C@H]31)O2 [RUBROBRAMIDE] as the molecule, how does the Activity (Meloidogyne incognita [2]) read?
The Activity was “inactive”.

And the Activity (HL-60)?
The Activity was “inactive”.

And the Activity (HeLa S3)?
The Activity was “inactive”.

What about the Activity (L1210) of the same molecule?
Its Activity is 50%.

What about the Activity (Lepidium sativum) of the same molecule?
The Activity was 50%.

What about the Activity (Setaria italica) of the same molecule?
The Activity was 50%.
